Assay results reported in patent publication US9149543B2, “Methods and models for rapid, widespread delivery of genetic material to the CNS using non-viral, cationic lipid-mediated vectors” (The Trustees of the University of Pennsylvania, priority 2005, dated 2015).

Test: DNA protection assay of DMDK lipoplex against DNase and human CSF (agarose gel)
Assay type: in vitro ADME
Conditions: lipoplex incubated with DNAses or human CSF in vitro
Method: Naked DNA and DMDK/DNA complexes were incubated at 37° C. for thirty minutes with 1 μl of RQ1 RNase-Free DNase and 10× Reaction Buffer (Promega, Madison, Wis.). One unit of RQ1 RNase-Free DNase (1 unit/μl) is defined as the amount required to completely degrade 1 μg of lambda DNA in 10 minutes at 37° C. in 50 μl of a buffered solution. After 30 minutes of incubation, aliquots were removed and used for transfection or phenol/chloroform extraction.
Incubation and transfection were also carried out in human CSF, obtained under an approved IRB protocol at the University of Pennsylvania, wherein CSF was collected under sterile conditions at the Hospital of the University of Pennsylvania during the normal course of pre-operative spinal anesthetic administration.
An equal volume of phenol/chlororform/isoamyl alcohol was added to the DNA solution. This solution was vortexed for 10 seconds, briefly centrifuged, and the aqueous layer removed and placed in a new tube. 1/10 volume of 3M sodium acetate was added and then vortexed. Next, 2.5 volumes of ice-cold 100% EtOH was added, vortexed and placed in a −70° C. freezer for 15 minutes. The solution was then microcentrifuged for 5 minutes at maximum speed, and the supernatant was removed. 1 ml of 70% EtOH (room temperature) was added, and centrifuged for 5 minutes at maximum speed. The supernatant was removed and the pellet dried. […]

With `CCCCCCCCCCCCCCC(=O)C(=O)CCCCCCCCCCCCCC` [DMDK, Dimyristyl Diketone] the “protection of plasmid DNA from degradation from DNAses or from human cerebral spinal fluid” value was “effectively protect plasmid DNA from degradation”.
